Experimental data as given in patent publication US20080108669A1, “Use 541” (AstraZeneca AB, priority 2006, published 2008).

What was measured:
human Trk A kinase = target: T1, human Trk A kinase (Homo sapiens, UniProt P04629); test: Trk A kinase assay (Alphascreen); format: biochemical; details: human Trk A intracellular domain, 70 μM ATP, 20 minutes, room temperature; read-out: IC50 (Trk inhibitory activity)
T1 construct: HIS; made in house; host or cells: SF9 insect cells
Description: Trk A kinase activity was measured for its ability to phosphorylate synthetic tyrosine residues within a generic polypeptide substrate using an Amplified Luminescent Proximity Assay (Alphascreen) technology (PerkinElmer, 549 Albany Street, Boston, Mass.).
To measure Trk A kinase activity, the intracellular domain of a HIS-tagged human Trk A kinase (amino acids 442-796 of Trk A, Swiss-Prot Primary Accession Number P04629) was expressed in SF9 cells and purified using standard nickel column chromatography. After incubation of the kinase with a biotinylated substrate and adenosine triphosphate (ATP) for 20 minutes at room temperature, the kinase reaction was stopped by the addition of 30 mM ethylenediaminetetraacetic acid (EDTA). The reaction was performed in 384 well microtitre plates and the reaction products were detected with the addition of strepavidin coated Donor Beads and phosphotyrosine-specific antibodies coated Acceptor Beads using the EnVision Multilabel Plate Reader after an overnight incubation at room temperature.

[1] = tested on: carrageenan-induced monoarthritis in rat; test: Monoarthritis induced by carrageenan, Paw Print setup (hindpaw weight distribution, "Walking pain"); format: in vivo; details: for hindpaw weight distribution (difference in percent weight-bearing between the two hind paws), mean ±SEM: four hours after administration (five hours after carrageenan), vehicle group 39.0±2.1%, n=8
Description: One single injection of carrageenan directly into the rat knee joint produces symptoms peaking at 3 to 4 hours and lasting for one to two days, and which are sensitive to treatment by most anti-nociceptive drugs (Tonussi and Ferreira, Pain 1992, 48, 421-427).
Under isoflurane anesthesia, 50 μL of carrageenan (7.5 mg/mL) was injected into the left tibio-tarsal (ankle) joint from the dorsal side. This injection causes a localized inflammation increasing to a maximum between 4 h to 8 h after induction, after which it gradually decreases, and the animals display decreased weight bearing on and guarding of the limb.
The Paw Print walkway consists of a 100×10 cm path with an access point at one short end and an exit at the other, and the rats are trained to make a swift, continuous passage. The walkway has a glass floor where light is projected into one long edge via fiber optics. Projecting the light in this fashion allows for virtually complete internal reflection within the glass floor. Only where an object touches the glass, such as the placement of a rat paw, light is scattered at the point of contact and produces an illuminated print (Betts, Duckworth, Eng. Med. 1978, 7, 223-228) that is recorded by a wide-angle camera placed under the walkway. The light intensity (range 0-255) of the illumination depends on the degree of contact against the floor and increases with the applied pressure (Clarke, Physiology & Behavior 1995, 58, 415-419). The Paw Print setup is a modified version of the CatWalk introduced by Hamers, Lankhorst, van Laar, Veldhuis, Gispen (J. Neurotrauma 2001, 18, 187-201), and has a computerized gait detection algorithm extracting several parameters pertaining to the rat's gait pattern and weight-bearing.
The animals were trained to cross the walkway twice, one and two days before induction of monoarthritis. Recordings were subsequently made on the day of testing, immediately before, and three and five hours after carrageenan injection, corresponding to two and four hours after per oral administration of test compound. The following parameters were used for analysis:
Weight-bearing per paw=The total sum of maximum light intensities for all pixels in the print of one paw is multiplied by the number of pixels of the print area. A paw placement consists of a number of pixels with light intensity above a certain threshold value (80 in this study). During the time course of one paw placement, a maximum value of light intensity is recorded for each pixel.
Based on the weight-bearing results, the Paw Print algorithm chooses the median print per paw in one walkway crossing. The median weight-bearing of each paw constitutes a percentage of the sum of all four paws' median weight-bearing results. The difference in percent weight-bearing between the two hind paws is shown (“Walking pain”).
The test compounds were administered 60 min after induction of monoarthritis.
Results were analysed using 1-Way ANOVA followed by Newman-Keuls for comparison between treatment groups for data obtained at each time-point after administration. The level of significance was set at p<0.05 (SigmaStat® 2.03).

T1 sequence (P04629 442-796): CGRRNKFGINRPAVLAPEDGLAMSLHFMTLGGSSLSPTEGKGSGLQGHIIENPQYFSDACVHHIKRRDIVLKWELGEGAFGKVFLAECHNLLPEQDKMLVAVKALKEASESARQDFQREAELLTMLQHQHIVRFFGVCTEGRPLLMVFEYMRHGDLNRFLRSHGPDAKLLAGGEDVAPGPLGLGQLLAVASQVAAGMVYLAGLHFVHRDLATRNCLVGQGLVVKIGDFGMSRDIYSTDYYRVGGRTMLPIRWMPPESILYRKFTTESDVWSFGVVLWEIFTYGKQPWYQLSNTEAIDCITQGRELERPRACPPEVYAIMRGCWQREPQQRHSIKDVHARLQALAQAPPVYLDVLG

## C[C@H](Nc1nc(Nc2cc(C3CC3)[nH]n2)c(Cl)cc1Cl)c1ccc(F)cc1 [(S)-3,5-Dichloro-N^2-(5-cyclopropyl-1H-pyrazol-3-yl)-N^6-(1-(4-fluoro-phenyl)ethyl)pyridine-2,6-diamine]
Human Trk A kinase
  IC50: 0.611 µM

## C[C@H](Nc1nc(Nc2cc(C3CC3)[nH]n2)c(F)cc1CNC(=O)C1CCC(=O)N1)c1ccc(F)cc1 (stereo partly drawn) [N-((6-(5-Cyclopropyl-1H-pyrazol-3-ylamino)-5-fluoro-2-((S)-1-(4-fluorophenyl)ethylamino)pyridin-3-yl)methyl)-5-oxopyrrolidine-2-carboxamide]
Human Trk A kinase
  IC50: 0.109 µM

## C[C@H](Nc1ccc([N+](=O)[O-])c(Nc2cc(C3CC3)[nH]n2)n1)c1ccc(F)cc1 [(S)-N^2-(5-Cyclopropyl-1H-pyrazol-3-yl)-N^6-(1-(4-fluorophenyl)ethyl)-3-nitropyridine-2,6-diamine]
Human Trk A kinase
  IC50: 0.063 µM

## CC(C)Oc1cc(Nc2nc(N[C@@H](C)c3ccc(F)cn3)c(C#N)cc2F)n[nH]1 [(S)-5-Fluoro-2-(1-(5-fluoropyridin-2-yl)ethylamino)-6-(5-isopropoxy-1H-pyrazol-3-ylamino)nicotinonitrile]
[1]; 50 μmol/kg per oral
  hindpaw weight distribution (difference in percent weight-bearing between the two hind paws), mean ±SEM: 24.6±4.3%
[1]; 100 μmol/kg per oral
  hindpaw weight distribution (difference in percent weight-bearing between the two hind paws), mean ±SEM: 27.6±3.3%
[1]; 200 μmol/kg per oral
  hindpaw weight distribution (difference in percent weight-bearing between the two hind paws), mean ±SEM: 18.4±3.2%
[1]; four hours after per oral administration, all doses tested: 50, 100 and 200 μmol/kg
  effect on hindpaw weight distribution vs vehicle (p<0.05): significantly reduced
[1]; two hours after per oral administration, 50, 100 and 200 μmol/kg
  effect on hindpaw weight distribution vs vehicle (p<0.05): not at two hours
